From patent US5200397A, “Use of peptide analogs of thrombospondin for the inhibition of angiogenic activity” (W. R. Grace & Co.-Conn., priority 1991, dated 1993)
Residues, ends and D or L forms follow the SMILES beside them. No end group written: not given here.

Columns and labels:
collagenase = assay: Collagenase inhibition assay (Johnson-Wint radiometric); assay type: biochemical; settings: 2 μg dose
Description: Collagenase inhibitory activity was determined as described by Johnson-Wint (Anal. Biochem. (1980) 104:175). Peptides p1 (SEQ ID No. 1) and p27 (SEQ ID NO. 19) were tested in the Johnson-Witt radiometric enzyme assay for collagenase activity at doses of 50 ng, 100 ng, 250 ng, 500 ng, 1 μg and 2μg. Peptide p27 was inhibitory (-21%) at the 2μg dose.

platelets = assay: Direct platelet adhesion assay; assay type: cell-based; settings: for Adherence as % Control: wells treated with 50 μl of 40 μg/ml solution, platelets
Description: The number of adherent platelets was essentially determined as previously described (Tuszynski et al., Anal. Bio. supra). Briefly, 100 μl of 5×10^8 platelets/ml washed as previously described (Tuszynski, et al., Blood 72, 109-225, 1988) were added to microtiter plates, the wells of which were treated with 50 μl of a 40 μg/m] peptide or protein solution (Hepes buffered saline, pH 7.4). Solutions were dried at room temperature after incubation in a fume hood for two hours. Wells were blocked for one hour with 1% BSA. Platelets (100 μl) were incubated in the wells for 30 minutes and non-adherent platelets were removed by aspiration. Wells were washed 3X with 200 μl of Hepes buffered saline, pH 7.4. The number of adherent platelets was determined by measuring the platelet-derived protein using the BCA protein assay.

[1] = system: Mouse B16 F10 melanoma cells; assay: Direct adhesion assay (melanoma cells to adsorbed ligand); assay type: cell-based; settings: for Adhesion as % Thrombospondin: absorbed compound 2 μg, B16 F10 melanoma cells
Description: It is believed that thrombospondin acts in metastasis through its adhesive properties. […] In this assay, wells of a 96-well microtiter dish (Costar, 10 Cambridge, Massachusetts) were incubated for two to three hours with 50 μl of a 40 μg/ml solution of various ligands in 20 mM NaCl, pH 7.3. Thrombospondin (purified by the method of Tuszynski et al., J. Biol. Chem. (1985) 260:12240-5), fibronectin (Sigma Chemical Co., Missouri) served as the positive control. Bovine serum albumin (BSA) (Sigma Chemical Co.) served as the negative control. […] Following peptide adhesion to the microtiter dish, the wells were aspirated, treated with 200 μl phosphate buffered saline (PBS) containing 1% BSA for 1 hour and then washed three more times with 200 μl PBS.
Mouse B16 F10 melanoma cells were grown and harvested during log phase of growth using standard procedures. The harvested cells were washed two times in serum-free Dulbecco's minimum essential medium (DMEM) (Flow Laboratories) and suspended in DMEM at a final concentration of 4×10^5 cells/ml. Of the cell suspension 100 μl was added to each well of the microtiter dish containing the various ligands and the dish incubated at 37° C. in a CO2 incubator for 1 hour. Nonadherent cells were removed by aspiration and the wells washed three times with 200 μl of PBS. The total cell-associated protein was determined by dissolving the attached cells directly in the microtiter wells with 200 μl of the Pierce BCA working solution (Pierce Chem. Co. Booklet No. 23225 (1987)). The plate was covered with an adhesive mylar sheet (Flow Labs) and incubated at 60° C. for 30 minutes. Plates were allowed to cool to room temperature, cover sheets were removed, and the absorbance of each well was determined at 562 nm with a microtiter plate reader (Biotek, Burlington, Vt.)

[2] = system: chicken chorioallantoic membrane (CAM); assay: CAM assay (antiangiogenesis, Avascular Index); assay type: in vivo; settings: any dosage
Description: Assays for antiangiogenic properties on the chicken chorioallantoic membrane (CAM) were performed using the "egg culture" technique (Auerbach, Dev. Biol. (1974) 41:391 and Crum, Science (1985) 230:1375). The fertilized White Leghorn egg (Truslow Farms, Chestertown, Md.) used in this method was removed from the shell on day 3 (after fertilization) and placed in a culture dish. The "cultured egg" was maintained through day 6 at 37° C. in an atmosphere of 2% CO2 and a relative humidity of 70%. After day 6 incubation was carried out without supplemental CO2.
Test materials were implanted on the CAM using low gelling temperature agarose pellets (Castellot, J. Cell Physiol. (1986) 127:323). This assay was performed twice. In the first assay, the test materials included pellets containing 90, 9, and 0.9 μg of peptide p1 (SEQ ID No. 1) diluted in water. […]
Antiangiogenesis was examined in an assay for inhibition of embryonic angiogenesis as described by Fenselau in "Growth and Maturation Factors" (1984) 2:175. After 1 or 2 days the samples were evaluated for their antiangiogenic effects on the CAM. […]
Inhibition of embryonic angiogenesis was also quantitated by measuring the size of the affected zone surrounding the pellet as well as the portion of the pellet that borders the affected region. […]

fibronectin (FN) = assay: Competitive platelet adhesion assay, absorbed fibronectin; assay type: cell-based; settings: 250 μg/ml; absorbed protein FN; platelets
Description: The direct adhesion assay of Example 7 was modified to measure the ability of the peptide compounds of the invention to compete with intact thrombospindin or fibronectin for adhesion of platelets.
In this assay, thrombospondin (TSP) or fibronectin (FN) was absorbed onto microtiter dish as described in Example 7. The assay was similar to Example 7 except that before platelets were added to the microtiter dishes they were preincubated with 250 μg/ml of various ligands.

intact thrombospondin = assay: Competitive assay, thrombospondin specific adhesion to melanoma cells; assay type: cell-based; settings: for % of buffer control: melanoma cell adhesion to absorbed thrombospondin
Description: The direct adhesion assay of Example 5 was modified to measure the ability of the peptide compounds of the invention to compete with intact thrombospondin for adhesion to melanoma cells.
In this assay, intact thrombospondin is absorbed onto microtiter dishes as described in Example 5. The assay is similar to Example 5 except that before the melanoma cells are added to the microtiter dishes they are preincubated for 15 minutes with 100 μg/ml of various ligands.

[3] = system: B16 F10 mouse melanoma cells; assay: Antimetastatic activity in vivo (lung tumors); parameters: species or system C57 black mice; settings: for % buffer control (number of lung tumors): intravenous with cells, 16 days
From the text: After 16 days, the mice were sacrificed and the number of lung tumors counted.

[4] = system: Platelet-rich-plasma (PRP); assay: Platelet aggregation assay (ADP, platelet-rich plasma); assay type: cell-based; settings: 1 μM ADP
Description: Platelet aggregation was monitored on a single-channel aggregometer equipped to measure luminescence (Chromo-Log, Havertown, Pa.). Platelet-rich-plasma (PRP) was obtained from whole blood anti-coagulated with 0.38% Sodium Citrate by centrifugation at 150 X g for 20 minutes. Peptides were added to 0.5 ml of PRP and aggregation initiated with 1 μM ADP. Buffer blanks contained diluent (water) but no peptide.

With “p27: Peptide p27 (SEQ ID NO. 19) tested in the collagenase assay; sequence not printed (WTSCSTSCG)” the “collagenase activity, inhibition” value (collagenase) was -21%.

For Thrombospondin [reference compound], the “Adherence as % Control” value (platelets) was 100% and the “Adhesion as % Thrombospondin” value [1] was 100%.

For “Bovine serum albumin [BSA, reference compound]”, the “Adherence as % Control” value (platelets) was 0.7% and the “Adhesion as % Thrombospondin” value [1] was 13%.

With CC(C)[C@H](NC(=O)[C@H](CO)NC(=O)[C@H](CS)NC(=O)[C@@H]1CCCN1C(=O)[C@H](CO)NC(=O)[C@@H](N)Cc1c[nH]c2ccccc12)C(=O)N[C@H](C(=O)N[C@@H](CS)C(=O)NCC(=O)O)[C@@H](C)O [p1] (H-WSPCSVTCG-OH) the “toxicity to embryo (abnormal development, embryo death)” value [2] was “not toxic”.

With fibronectin the “Adherence as % Control” value (platelets) was 83%.

In the case of “WSPCSVTCG-NH2 (cysteine pairing not given here) [p6]”, the “adherence to platelets (in words)” value (platelets) is reported as “adhere to platelets”, the “Adherence as % Control” value (platelets) is reported as 38% and the “% Buffer Control” value (fibronectin (FN)) is reported as 96%. For the same compound, the “competition with thrombospondin for adhesion of melanoma cells (in words)” value (intact thrombospondin) was “compete to a lesser degree”, the “% of buffer control” value (intact thrombospondin; 100 μg/ml) was 89% and the “% of buffer control” value (intact thrombospondin; 200 μg/ml) was 74%. The “% of buffer control” value (intact thrombospondin; 300 μg/ml) was 74%, the “% buffer control (number of lung tumors)” value ([3]; 30 μg/mouse) was 91% and the “% buffer control (number of lung tumors)” value ([3]; 100 μg/mouse) was 102%. The “% buffer control (number of lung tumors)” value ([3]; 300 μg/mouse) was 50%, the “number of lung tumors versus controls (in words)” value ([3]; mouse, in vivo) was “statistically fewer tumors than controls” and the “size of lung tumors (in words)” value ([3]; mouse, in vivo) was “smaller in size”. The “inhibition of platelet aggregation (in words, FIG. 1)” value [4] was “inhibit platelet aggregation”, the “Adhesion as % Thrombospondin” value [1] was 70% and the “adhesive properties (in words)” value ([1]; melanoma cell adhesion, Table 1) was “display adhesive properties”.
